Data on 14 molecules can be found in ChEMBL document CHEMBL1136551, “Characterization of the mechanism of anticonvulsant activity for a selected set of putative AMPA receptor antagonists” (Bioorg Med Chem Lett, 2003).

For test [1], the species on record is Mus musculus. In words: Anticonvulsant activity against audiogenic seizures in DBA/2 mice measured in clonic phase. The class given is functional.
Test [2] addresses Glutamate receptor ionotropic, NMDA 1 (Rattus norvegicus) (UniProt P35439). In words: Percentage inhibition of [3H]glycine to NMDA receptors of rat cortical membranes at 32 uM. The class given is cell membranes. As to conditions: Membrane.
The target in test [3] is Glutamate receptor ionotropic, AMPA (Rattus norvegicus) (UniProt P19491+P19492+P19493+P19490). In words: Percent inhibition of [3H]CP-526427 binding to Ionotropic glutamate receptor AMPA in rat forebrain membranes at 32 uM. Format: cell membranes. The settings on record: Membrane.
The next test is filed under the species Rattus norvegicus. In words: Inhibition of KA-induced increase in [Ca2+]i in rat cerebellar granule neurons. Format: functional.
The species entered for test [4] is Mus musculus. In words: Anticonvulsant activity against audiogenic seizures in DBA/2 mice measured in tonic phase. The class given is functional.
The target in test [5] is T1, Glutamate receptor ionotropic, AMPA (Rattus norvegicus, UniProt P19490+P19491+P19492+P19493). In words: Ability to displace [3H]CP-526427 from the Ionotropic glutamate receptor AMPA binding site in rat forebrain membranes. The class given is cell membranes, Brain, Membrane.
Test [6] addresses Glutamate receptor ionotropic, NMDA 1 (Rattus norvegicus, UniProt P35439). In words: Inhibition of specific binding of [3H]glycine to NMDA receptors, in rat cortical membranes at 32 uM conc. Format: cell membranes, Membrane.
The target of test [7] is T1, Glutamate receptor ionotropic, AMPA. In words: Ability to displace [3H]CP-526427 from the AMPA receptor binding site in rat forebrain membranes. The class given is cell membranes, Membrane.

The term ED50 denotes the dose that gives a 50% effect, or the effect in half of the subjects. A higher ED50 goes with a need for a large dose. A word on the inhibition: it is the share of the control response that was lost under treatment. The molecule `CNC(=O)N/N=C(\c1ccc(N)cc1)c1cc2c(cc1CC(=O)OC)OCO2` showed an ED50 in the test listed under Mus musculus [1] of 7.87 µmol/kg. Also, the figures for the inhibition in test [2] and in test [3] were 2% and 16%, respectively.
Broadly, the IC50 is the point on the concentration scale where inhibition reaches its midpoint. As for `CNC(=O)N1NC(c2ccc(N)cc2)c2cc3c(cc2CC1=O)OCO3` (centres undefined), the ED50 in the test filed under Mus musculus [1] worked out at 14.7 µmol/kg; in the test filed under Mus musculus [4] it was 12.4 µmol/kg. In the test filed under Rattus norvegicus, this molecule showed an IC50 greater than 100 µM. Besides, the values for the inhibition in test [2] and in test [3] were 12% and 0%, respectively.
Turning to `CNC(=O)NC(=O)Cc1cc2c(cc1C(=O)c1ccc(N)cc1)OCO2`, the values for the inhibition in test [2] and in test [3] were 11% and 3%, respectively.
Take `NS(=O)(=O)c1cccc2c1c([N+](=O)[O-])cc1nc(O)c(O)nc12`: the inhibition in test [2] was 3%.
On to `CCCCNC(=O)N1NC(c2ccc(N)cc2)c2cc3c(cc2CC1=O)OCO3` (centres undefined), for which the ED50 was 39.2 µmol/kg in the test listed under Mus musculus [1] and 32.7 µmol/kg in the test listed under Mus musculus [4]. The IC50 in the test filed under Rattus norvegicus was greater than 100 µM. The values for the inhibition in test [2] and in test [3] were 13% and 0%, respectively.
Regarding `CNC(=O)NC(=O)Cc1cc2c(cc1Cc1ccc(N)cc1)OCO2`, the inhibition in test [2] and in test [3] was 0% in each case.
As for `Nc1ccc(C2=NNC(=O)Cc3cc4c(cc32)OCO4)cc1`, the IC50 amounted to 13 µM in the test filed under Rattus norvegicus and 32 µM in test [5]. Moreover, the inhibition in test [2] turned out to be 0%; in test [3], 74%.
Regarding `O=C(O)c1cc(O)c2c(Cl)cc(Cl)cc2n1`, the concentration for half-maximal inhibition (IC50) in test [6] was determined as 0.09 µM.
In the test filed under Rattus norvegicus, `CCCCNC(=O)n1nc(-c2ccc(N)cc2)c2cc3c(cc2c1=O)OCO3` registered an IC50 greater than 100 µM. The inhibition in test [2] was found to be 13%; in test [3] it was 0%.
Consider `CC1=NN=C(c2ccc(N)cc2)c2cc3c(cc2C1)OCO3` [GYKI-52466], for which the half-inhibitory concentration (IC50) in the test listed under Rattus norvegicus turned out to be 22 µM; in test [7], 12.6 µM. Further, the inhibition in test [2] was determined as 18%.
Take `Nc1ccc(C2NNC(=O)Cc3cc4c(cc32)OCO4)cc1` (centres undefined): the IC50 in the test listed under Rattus norvegicus is greater than 100 µM. Moreover, the inhibition in test [2] turned out to be 9%; in test [3], 10%. In addition, the ED50 in the test filed under Mus musculus [4] is 6.47 µmol/kg.
Take `Nc1ccc(-c2nnc(O)c3cc4c(cc23)OCO4)cc1`: the IC50 in the test filed under Rattus norvegicus is greater than 100 µM. Also, the inhibition in test [2] amounted to 12%; in test [3] it was 13%.
On to `Nc1cccc(C2=NNC(=O)Cc3cc4c(cc32)OCO4)c1`, for which the IC50 (in the test filed under Rattus norvegicus; in test [5]) was greater than 320 µM each time. The inhibition is 0% in test [2] and 31% in test [3].
Consider `CNC(=O)N1N=C(c2ccc(N)cc2)c2cc3c(cc2CC1=O)OCO3`, for which the IC50 was found to be 11 µM in the test filed under Rattus norvegicus and 12 µM in test [5]. In addition, the inhibition in test [2] is 0%; in test [3] it was 59%.
